Patent US7795281B2, “Optically active dihydropyridine derivative” (Daiichi Sankyo Company, Limited, priority 2002, dated 2010)
Each block holds one compound with its values, some of them ahead of it.

Assays:
[1] = system: male spontaneously hypertensive rats; test: Blood pressure lowering action in hypertensive rats; assay type: in vivo, rat
Procedure: Blood Pressure Lowering Action in Hypertensive Rats
Cannulas for measuring blood pressure and administering drug were inserted into the inguinal artery and inguinal vein, respectively, of male spontaneously hypertensive rats age 25 to 29 weeks followed by intravenous administration of a compound under anesthesia and measurement of blood pressure over time for the course of 120 minutes.
The results of comparing the racemic form (20 μg/kg) and R form (10 μg/kg) are shown in Table 2, while the results of comparing the R form (3 μg/kg, 10 μg/kg) and the S form (1000 μg/kg) in a different series of experiments are shown in Table 3.

L calcium channel = target: T1, L calcium channel (Sus scrofa, UniProt A0A8W4FNC0); test: Receptor binding experiment using porcine myocardial microsomes (3H-nitrendipine); conditions: for IC50 / Ki: porcine myocardial microsomes, average of two experiments; for IC50: 3H-nitrendipine 0.1 nM, read-out: IC50 (50% inhibitory concentration of specific binding); for Ki: Ki=IC50/(1+[L]/Kd), read-out: Ki (inhibition constant)
T1 construct: from tissue; host or cells: porcine myocardium (microsome fraction)
Procedure: Receptor Binding Experiment Using Porcine Myocardial Microsomes
Porcine myocardial microsomes were used for the source of the L calcium channel, while ^3H-nitrendipine was used for the ligand of the L calcium channel. The microsomes (0.2 mg protein/ml), ^3H-nitrendipine (0.1 nM) and test drug (racemic form, R form or S form) were allowed to react at room temperature for 30 minutes in HEPES buffer (50 mM, pH 7.4) followed by measurement of the ^3H-nitrendipine that bound to the microsome fraction with a liquid scintillation counter. The count in the presence of 10 μM non-labeled nitrendipine (amount of non-specific binding) was then subtracted to determine the amount of specific binding. The relationship between the concentration and inhibition rate of specific binding was approximated to a logistic curve for each test drug to determine IC50 (50% inhibitory concentration of specific binding). The Ki value (inhibition constant) for each test drug was then determined from the following formula using the Kd (dissociation constant) of nitrendipine as separately determined from a Scatchard plot: Ki=IC50/(1+[L]/Kd) (wherein [L] is the concentration of ^3H-nitrendipine).

T1 sequence (A0A8W4FNC0 1-2067): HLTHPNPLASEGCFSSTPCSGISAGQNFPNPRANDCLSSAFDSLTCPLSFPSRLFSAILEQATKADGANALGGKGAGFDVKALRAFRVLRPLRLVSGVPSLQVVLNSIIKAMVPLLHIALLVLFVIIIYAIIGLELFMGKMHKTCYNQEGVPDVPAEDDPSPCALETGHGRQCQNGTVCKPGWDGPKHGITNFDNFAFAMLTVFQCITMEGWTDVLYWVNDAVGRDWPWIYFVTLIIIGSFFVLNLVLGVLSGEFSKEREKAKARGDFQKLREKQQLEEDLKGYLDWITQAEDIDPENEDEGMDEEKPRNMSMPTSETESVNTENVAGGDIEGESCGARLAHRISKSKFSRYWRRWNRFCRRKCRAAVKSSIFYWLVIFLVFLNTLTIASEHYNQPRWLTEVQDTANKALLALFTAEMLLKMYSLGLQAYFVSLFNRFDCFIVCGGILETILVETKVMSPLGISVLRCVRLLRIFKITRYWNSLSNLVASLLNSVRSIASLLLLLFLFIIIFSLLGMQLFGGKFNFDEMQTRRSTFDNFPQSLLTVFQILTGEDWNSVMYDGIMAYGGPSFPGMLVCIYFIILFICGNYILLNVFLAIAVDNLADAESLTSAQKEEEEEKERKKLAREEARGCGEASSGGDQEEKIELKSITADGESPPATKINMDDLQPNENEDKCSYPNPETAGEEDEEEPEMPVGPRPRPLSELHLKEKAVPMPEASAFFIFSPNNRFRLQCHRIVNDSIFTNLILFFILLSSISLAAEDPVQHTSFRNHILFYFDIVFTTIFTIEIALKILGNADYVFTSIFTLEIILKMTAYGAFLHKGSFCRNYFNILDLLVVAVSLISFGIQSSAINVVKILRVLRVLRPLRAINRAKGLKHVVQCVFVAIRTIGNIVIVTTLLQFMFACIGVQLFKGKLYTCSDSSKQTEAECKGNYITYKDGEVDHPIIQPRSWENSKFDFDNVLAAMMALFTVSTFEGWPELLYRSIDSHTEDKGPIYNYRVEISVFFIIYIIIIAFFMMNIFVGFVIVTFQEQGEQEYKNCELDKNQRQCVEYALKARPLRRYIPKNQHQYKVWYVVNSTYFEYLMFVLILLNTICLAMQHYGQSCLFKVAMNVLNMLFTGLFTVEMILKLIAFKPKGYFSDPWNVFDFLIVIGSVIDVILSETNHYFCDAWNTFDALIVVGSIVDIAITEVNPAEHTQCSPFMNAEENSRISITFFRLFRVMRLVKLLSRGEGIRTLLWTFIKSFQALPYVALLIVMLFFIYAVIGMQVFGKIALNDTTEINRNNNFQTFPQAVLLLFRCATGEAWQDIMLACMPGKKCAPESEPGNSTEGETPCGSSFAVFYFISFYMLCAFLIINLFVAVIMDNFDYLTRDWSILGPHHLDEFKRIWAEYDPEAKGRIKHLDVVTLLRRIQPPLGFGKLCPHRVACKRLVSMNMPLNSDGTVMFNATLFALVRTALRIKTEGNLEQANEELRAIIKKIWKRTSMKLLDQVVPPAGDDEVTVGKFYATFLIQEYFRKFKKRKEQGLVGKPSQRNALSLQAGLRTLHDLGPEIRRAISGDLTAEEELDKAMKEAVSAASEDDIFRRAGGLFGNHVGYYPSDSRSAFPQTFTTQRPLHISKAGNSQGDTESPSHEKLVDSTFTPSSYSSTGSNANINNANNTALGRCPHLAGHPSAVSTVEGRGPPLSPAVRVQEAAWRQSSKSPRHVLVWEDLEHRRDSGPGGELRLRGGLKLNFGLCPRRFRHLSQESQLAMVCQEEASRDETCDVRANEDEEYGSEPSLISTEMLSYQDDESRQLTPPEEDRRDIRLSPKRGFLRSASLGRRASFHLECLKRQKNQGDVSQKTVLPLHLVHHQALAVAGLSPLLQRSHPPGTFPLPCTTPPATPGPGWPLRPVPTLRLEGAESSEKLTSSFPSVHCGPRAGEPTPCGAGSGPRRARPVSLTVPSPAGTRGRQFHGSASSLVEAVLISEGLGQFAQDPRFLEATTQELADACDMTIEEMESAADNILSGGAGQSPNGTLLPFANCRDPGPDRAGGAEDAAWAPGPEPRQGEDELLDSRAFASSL

L calcium channel inhibitory activity, potency relative to S form (L calcium channel; R form vs S form): roughly 500 times
L calcium channel inhibitory activity, potency relative to racemic form (L calcium channel; R form vs racemic form): more than twice as potent
IC50 (L calcium channel): 1.3 nM
Ki (L calcium channel): 0.88 nM
SMILES: CC1=C(C(=O)OC(C)C)[C@@H](c2cccc([N+](=O)[O-])c2)C(C(=O)OC2CN(C(c3ccccc3)c3ccccc3)C2)=C(N)N1 [R form, (R)-2-amino-1,4-dihydro-6-methyl-4-(3-nitrophenyl)-3,5-pyridinedicarboxylic acid 3-(1-diphenylmethylazetidin-3-yl) ester 5-isopropyl ester]
Change in blood pressure ([1]; 3 μg/kg i.v., 0 minutes, Table 3 (different series of experiments), mean ± standard error): 0 ± 0 mmHg
Change in blood pressure ([1]; 3 μg/kg i.v., 10 minutes, Table 3 (different series of experiments), mean ± standard error): −3 ± 3 mmHg
Change in blood pressure ([1]; 3 μg/kg i.v., 30 minutes, Table 3 (different series of experiments), mean ± standard error): −14 ± 3 mmHg
Change in blood pressure ([1]; 3 μg/kg i.v., 60 minutes, Table 3 (different series of experiments), mean ± standard error): −28 ± 3 mmHg
Change in blood pressure ([1]; 3 μg/kg i.v., 90 minutes, Table 3 (different series of experiments), mean ± standard error): −34 ± 5 mmHg
Change in blood pressure ([1]; 3 μg/kg i.v., 120 minutes, Table 3 (different series of experiments), mean ± standard error): −34 ± 10 mmHg
Change in blood pressure ([1]; 10 μg/kg i.v., 0 minutes, Table 2, mean ± standard error): 0 ± 0 mmHg
Change in blood pressure ([1]; 10 μg/kg i.v., 0 minutes, Table 3 (different series of experiments), mean ± standard error): 0 ± 0 mmHg
Change in blood pressure ([1]; 10 μg/kg i.v., 10 minutes, Table 2, mean ± standard error): −17 ± 4 mmHg
Change in blood pressure ([1]; 10 μg/kg i.v., 10 minutes, Table 3 (different series of experiments), mean ± standard error): −23 ± 5 mmHg
Change in blood pressure ([1]; 10 μg/kg i.v., 30 minutes, Table 2, mean ± standard error): −28 ± 5 mmHg
Change in blood pressure ([1]; 10 μg/kg i.v., 30 minutes, Table 3 (different series of experiments), mean ± standard error): −36 ± 6 mmHg
Change in blood pressure ([1]; 10 μg/kg i.v., 60 minutes, Table 2, mean ± standard error): −43 ± 7 mmHg
Change in blood pressure ([1]; 10 μg/kg i.v., 60 minutes, Table 3 (different series of experiments), mean ± standard error): −49 ± 11 mmHg
Change in blood pressure ([1]; 10 μg/kg i.v., 90 minutes, Table 2, mean ± standard error): −45 ± 7 mmHg
Change in blood pressure ([1]; 10 μg/kg i.v., 90 minutes, Table 3 (different series of experiments), mean ± standard error): −54 ± 8 mmHg
Change in blood pressure ([1]; 10 μg/kg i.v., 120 minutes, Table 2, mean ± standard error): −47 ± 6 mmHg
Change in blood pressure ([1]; 10 μg/kg i.v., 120 minutes, Table 3 (different series of experiments), mean ± standard error): −61 ± 6 mmHg
Blood pressure lowering activity, potency relative to S form ([1]; R form vs S form): roughly 300 times
Blood pressure lowering activity, potency relative to racemic form ([1]; R form vs racemic form): roughly twice as potent

IC50 (L calcium channel): 700 nM
Ki (L calcium channel): 460 nM
SMILES: CC1=C(C(=O)OC(C)C)[C@H](c2cccc([N+](=O)[O-])c2)C(C(=O)OC2CN(C(c3ccccc3)c3ccccc3)C2)=C(N)N1 [S form, (S)-2-amino-1,4-dihydro-6-methyl-4-(3-nitrophenyl)-3,5-pyridinedicarboxylic acid 3-(1-diphenylmethylazetidin-3-yl) ester 5-isopropyl ester]
Change in blood pressure ([1]; 1000 μg/kg i.v., 0 minutes, Table 3 (different series of experiments), mean ± standard error): 0 ± 0 mmHg
Change in blood pressure ([1]; 1000 μg/kg i.v., 10 minutes, Table 3 (different series of experiments), mean ± standard error): −5 ± 1 mmHg
Change in blood pressure ([1]; 1000 μg/kg i.v., 30 minutes, Table 3 (different series of experiments), mean ± standard error): −18 ± 6 mmHg
Change in blood pressure ([1]; 1000 μg/kg i.v., 60 minutes, Table 3 (different series of experiments), mean ± standard error): −29 ± 10 mmHg
Change in blood pressure ([1]; 1000 μg/kg i.v., 90 minutes, Table 3 (different series of experiments), mean ± standard error): −36 ± 7 mmHg
Change in blood pressure ([1]; 1000 μg/kg i.v., 120 minutes, Table 3 (different series of experiments), mean ± standard error): −35 ± 4 mmHg

IC50 (L calcium channel): 3.1 nM
Ki (L calcium channel): 2.1 nM
SMILES: CC1=C(C(=O)OC(C)C)C(c2cccc([N+](=O)[O-])c2)C(C(=O)OC2CN(C(c3ccccc3)c3ccccc3)C2)=C(N)N1 (racemic) [Racemic form, (±)-2-amino-1,4-dihydro-6-methyl-4-(3-nitrophenyl)-3,5-pyridinedicarboxylic acid 3-(1-diphenylmethylazetidin-3-yl) ester 5-isopropyl ester, reference compound]
Change in blood pressure ([1]; 20 μg/kg i.v., 0 minutes, Table 2, mean ± standard error): 0 ± 0 mmHg
Change in blood pressure ([1]; 20 μg/kg i.v., 10 minutes, Table 2, mean ± standard error): −21 ± 2 mmHg
Change in blood pressure ([1]; 20 μg/kg i.v., 30 minutes, Table 2, mean ± standard error): −35 ± 4 mmHg
Change in blood pressure ([1]; 20 μg/kg i.v., 60 minutes, Table 2, mean ± standard error): −42 ± 6 mmHg
Change in blood pressure ([1]; 20 μg/kg i.v., 90 minutes, Table 2, mean ± standard error): −45 ± 6 mmHg
Change in blood pressure ([1]; 20 μg/kg i.v., 120 minutes, Table 2, mean ± standard error): −48 ± 7 mmHg
